Reference: patent US20260297092A1, “PYRAZOLOPYRIMIDINE DERIVATIVES AS INHIBITORS OF NLRP3” (Takeda Pharmaceutical Company Limited, priority 2023, published 2026)
pIC50: −log10 of the molar value.

Key:
[1] = test system: TNF-α (NF-κB pathway, THP-1 cells); assay: TNF-α Assay (IC50); format: cell-based, human; details: Homo sapiens, 600 ng/mL LPS, 3 hours
In short: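 Supernatant TNF-α quantified by ELISA after 3 h stimulation with 600 ng/mL LPS at 37 °C, following 30 min compound preincubation. Cells: IFN-differentiated (25 ng/mL, 24 h) THP-1 macrophages, 40,000/well, serum-free. IC50 by sigmoidal fit of % inhibition, with TPCA-1 as 100% control.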

[2] = test system: NLRP3 inflammasome (IL-1β production in THP-1 cells); assay: IL-1β TR-FRET Assay (percentage of inhibition at 300 nM, 6 μM or 10 μM); format: cell-based, human; details: Homo sapiens, LPS priming, ATP activation; for inhibition at 0.3 µM: THP-1, 300 nM, read-out: IL-1β inhibitory rate at 300 nM (%); for inhibition at 6 µM: THP-1, 6 μM, read-out: IL-1β inhibitory rate at 6 μM (%)
In short: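 Percent inhibition of IL-1β used DMSO wells as 0% and 3 μM MCC-950 wells as full inhibition, with supernatant read by HTRF. Beforehand, IFN-γ-differentiated (25 ng/mL, 24 h), LPS-primed (50 ng/mL, 24 h) THP-1 cells received compound 30 min before inflammasome activation by 20 mM ATP for 2 h.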

Structure (SMILES) | pIC50 [1] | inhibition at 0.3 µM [2] [%] | inhibition at 6 µM [2] [%]
CCOc1nc2nn(-c3c(F)cc(Br)cc3C(F)(F)F)cc2c(=O)[nH]1 [Example 19, 2-[4-bromo-2-fluoro-6-(trifluoromethyl)phenyl]-6-ethoxy-2,5-dihydro-4H-pyrazolo[3,4-d]pyrimidin-4-one] | < 4.52 | 95 | –
Cc1cc(C)c(-n2cc3c(=O)[nH]c(-c4ncccn4)nc3n2)c(O)c1 [Example 34, 2-(2-hydroxy-4,6-dimethylphenyl)-6-(pyrimidin-2-yl)-2,5-dihydro-4H-pyrazolo[3,4-d]pyrimidin-4-one] | < 4.52 | 98 | –
O=c1[nH]c(COC(F)F)nc2nn(-c3c(F)cc(C4CC4)cc3C(F)F)cc12 [Example 302, 2-[4-cyclopropyl-2-(difluoromethyl)-6-fluorophenyl]-6-[(difluoromethoxy)methyl]-2,5-dihydro-4H-pyrazolo[3,4-d]pyrimidin-4-one] | < 4.52 | – | 96
Cc1cc(C2CC2)cc(C)c1-n1cc2c(=O)[nH]c(OCCOC(F)F)nc2n1 [Example 288, 2-(4-cyclopropyl-2,6-dimethylphenyl)-6-[2-(difluoromethoxy)ethoxy]-2,5-dihydro-4H-pyrazolo[3,4-d]pyrimidin-4-one] | < 4.52 | – | 99
CCOc1nc2nn(-c3c(C)cc(C4(F)CC4)cc3F)cc2c(=O)[nH]1 [Example 182, 6-ethoxy-2-[2-fluoro-4-(1-fluorocyclopropyl)-6-methylphenyl]-2,5-dihydro-4H-pyrazolo[3,4-d]pyrimidin-4-one] | < 4.52 | 102 | –
CCOc1nc2nn(-c3c(F)cc(OC(F)F)cc3Br)cc2c(=O)[nH]1 [Example 119, 2-[2-bromo-4-(difluoromethoxy)-6-fluorophenyl]-6-ethoxy-2,5-dihydro-4H-pyrazolo[3,4-d]pyrimidin-4-one] | < 4.52 | 101 | –
COc1nc2nn(-c3c(F)cc(C4(F)CC4)cc3Br)cc2c(=O)[nH]1 [Example 204, 2-[2-bromo-6-fluoro-4-(1-fluorocyclopropyl)phenyl]-6-methoxy-2,5-dihydro-4H-pyrazolo[3,4-d]pyrimidin-4-one] | < 4.52 | 98 | –
Cc1cc(C)c(-n2cc3c(=O)[nH]c(-c4ccccc4Cl)nc3n2)c(O)c1 [Example 45, 6-(2-chlorophenyl)-2-(2-hydroxy-4,6-dimethylphenyl)-2,5-dihydro-4H-pyrazolo[3,4-d]pyrimidin-4-one] | < 4.52 | 100 | –
COc1nc2nn(-c3c(C)cc(Br)cc3C)cc2c(=O)[nH]1 [Example 138, 2-(4-bromo-2,6-dimethylphenyl)-6-methoxy-2,5-dihydro-4H-pyrazolo[3,4-d]pyrimidin-4-one] | < 4.52 | 93 | –
CCOc1nc2nn(-c3c(C)cc(OC)cc3C)cc2c(=O)[nH]1 [Example 145, 6-ethoxy-2-(4-methoxy-2,6-dimethylphenyl)-2,5-dihydro-4H-pyrazolo[3,4-d]pyrimidin-4-one] | < 4.52 | 106 | –
CCOc1nc2nn(-c3c(C)cc(C4CC4(F)F)cc3F)cc2c(=O)[nH]1 (racemic) [Example 112, 2-[4-(2,2-difluorocyclopropyl)-2-fluoro-6-methylphenyl]-6-ethoxy-2,5-dihydro-4H-pyrazolo[3,4-d]pyrimidin-4-one] | < 4.52 | 98 | –
CCOc1nc2nn(-c3c(C)cc(C(F)F)cc3F)cc2c(=O)[nH]1 [Example 136, 2-[4-(difluoromethyl)-2-fluoro-6-methylphenyl]-6-ethoxy-2,5-dihydro-4H-pyrazolo[3,4-d]pyrimidin-4-one] | < 4.52 | 92 | –

Continued, in another order:

pIC50 [1] | Structure (SMILES) | inhibition at 0.3 µM [2] [%] | inhibition at 6 µM [2] [%]
< 4.52 | CCOc1nc2nn(-c3c(F)cc(C4CC4)cc3F)cc2c(=O)[nH]1 [Example 103, 2-(4-cyclopropyl-2,6-difluorophenyl)-6-ethoxy-2,5-dihydro-4H-pyrazolo[3,4-d]pyrimidin-4-one] | 97 | –
< 4.52 | Cc1ccc(-n2cc3c(=O)[nH]c(OCC(C)(F)F)nc3n2)c(O)c1 [Example 86, 6-(2,2-difluoropropoxy)-2-(2-hydroxy-4-methylphenyl)-2,5-dihydro-4H-pyrazolo[3,4-d]pyrimidin-4-one] | 85 | –
< 4.52 | CCOc1nc2nn(-c3c(F)cc(C)cc3CC)cc2c(=O)[nH]1 [Example 76, 6-ethoxy-2-(2-ethyl-6-fluoro-4-methylphenyl)-2,5-dihydro-4H-pyrazolo[3,4-d]pyrimidin-4-one] | 94 | –
< 4.52 | COCCc1nc2nn(-c3c(C)cc(C)cc3O)cc2c(=O)[nH]1 [Example 38, 2-(2-hydroxy-4,6-dimethylphenyl)-6-(2-methoxyethyl)-2,5-dihydro-4H-pyrazolo[3,4-d]pyrimidin-4-one] | 100 | –
< 4.52 | Cc1cc(-c2nc3nn(-c4c(C)cc(C5CC5)cc4C)cc3c(=O)[nH]2)no1 [Example 274, 2-(4-cyclopropyl-2,6-dimethylphenyl)-6-(5-methyl-1,2-oxazol-3-yl)-2,5-dihydro-4H-pyrazolo[3,4-d]pyrimidin-4-one] | – | 102
< 4.52 | Cc1cc(C)c(-n2cc3c(=O)[nH]c(OC(C)C(F)(F)F)nc3n2)c(O)c1 (stereo not drawn) [Example 43, 2-(2-hydroxy-4,6-dimethylphenyl)-6-[(1,1,1-trifluoropropan-2-yl)oxy]-2,5-dihydro-4H-pyrazolo[3,4-d]pyrimidin-4-one] | 98 | –
< 4.52 | Cc1cc(C)c(-n2cc3c(=O)[nH]c(CN4CCOCC4)nc3n2)c(O)c1 [Example 62, 2-(2-hydroxy-4,6-dimethylphenyl)-6-[(morpholin-4-yl)methyl]-2,5-dihydro-4H-pyrazolo[3,4-d]pyrimidin-4-one] | 95 | –
< 4.52 | O=c1[nH]c(C2CCOC2)nc2nn(-c3c(F)cc(C4CC4)cc3C(F)F)cc12 (stereo not drawn) [Example 296, 2-[4-cyclopropyl-2-(difluoromethyl)-6-fluorophenyl]-6-(oxolan-3-yl)-2,5-dihydro-4H-pyrazolo [3,4-d]pyrimidin-4-one] | – | 104
< 4.52 | Cc1cc(C2CC2)cc(C)c1-n1cc2c(=O)[nH]c(OCC(F)F)nc2n1 [Example 285, 2-(4-cyclopropyl-2,6-dimethylphenyl)-6-(2,2-difluoroethoxy)-2,5-dihydro-4H-pyrazolo[3,4-d]pyrimidin-4-one] | – | 100
< 4.52 | CCOc1nc2nn(-c3c(C)cc(OC(F)(F)F)cc3F)cc2c(=O)[nH]1 [Example 125, 6-ethoxy-2-[2-fluoro-6-methyl-4-(trifluoromethoxy)phenyl]-2,5-dihydro-4H-pyrazolo[3,4-d]pyrimidin-4-one] | 100 | –
< 4.52 | Cc1cc(C)c(-n2cc3c(=O)[nH]c(-c4ccnc(C)n4)nc3n2)c(O)c1 [Example 15, 2-(2-hydroxy-4,6-dimethylphenyl)-6-(2-methylpyrimidin-4-yl)-2,5-dihydro-4H-pyrazolo [3,4-d]pyrimidin-4-one] | 99 | –
< 4.52 | Cc1cc(C)c(-n2cc3c(=O)[nH]c(C4CCCCO4)nc3n2)c(O)c1 (stereo not drawn) [Example 18, 2-(2-hydroxy-4,6-dimethylphenyl)-6-(oxan-2-yl)-2,5-dihydro-4H-pyrazolo[3,4-d]pyrimidin-4-one] | 99 | –
< 4.52 | CCOc1nc2nn(-c3c(F)cc(OC)cc3Br)cc2c(=O)[nH]1 [Example 157, 2-(2-bromo-6-fluoro-4-methoxyphenyl)-6-ethoxy-2,5-dihydro-4H-pyrazolo[3,4-d]pyrimidin-4-one] | 102 | –
< 4.52 | Cc1cc(C)c(-n2cc3c(=O)[nH]c(OCC(C)(F)F)nc3n2)c(O)c1 [Example 42, 6-(2,2-difluoropropoxy)-2-(2-hydroxy-4,6-dimethylphenyl)-2,5-dihydro-4H-pyrazolo[3,4-d]pyrimidin-4-one] | 97 | –
< 4.52 | CCOc1nc2nn(-c3c(F)cc(C)cc3C(F)(F)F)cc2c(=O)[nH]1 [Example 73, 6-ethoxy-2-[2-fluoro-4-methyl-6-(trifluoromethyl)phenyl]-2,5-dihydro-4H-pyrazolo[3,4-d]pyrimidin-4-one] | 97 | –
< 4.52 | COc1ccc(-c2nc3nn(-c4c(C)cc(C)cc4O)cc3c(=O)[nH]2)nc1 [Example 21, 2-(2-hydroxy-4,6-dimethylphenyl)-6-(5-methoxypyridin-2-yl)-2,5-dihydro-4H-pyrazolo[3,4-d]pyrimidin-4-one] | 98 | –
< 4.52 | CO[C@H]1CCCC[C@@H]1c1nc2nn(-c3c(C)cc(C)cc3O)cc2c(=O)[nH]1 (racemic) [Example 36, racemic mixture of 2-(2-hydroxy-4,6-dimethylphenyl)-6-[(1R,2S)-2-methoxycyclohexyl]-2,5-dihydro-4H-pyrazolo[3,4-d]pyrimidin-4-one and 2-(2-hydroxy-4,6-dimethylphenyl)-6-[(1S,2R)-2-methoxycyclohexyl]-2,5-dihydro-4H-pyrazolo [3,4-d]pyrimidin-4-one] | 97 | –
< 4.52 | CCOc1nc2nn(-c3c(C)cc(C(F)(F)F)cc3F)cc2c(=O)[nH]1 [Example 64, 6-ethoxy-2-[2-fluoro-6-methyl-4-(trifluoromethyl)phenyl]-2,5-dihydro-4H-pyrazolo[3,4-d]pyrimidin-4-one] | 100 | –
